Source: PubChem BioAssay (NCI)
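Where inhibition never reached the appropriate level, the endpoint shown equals the highest concentration tested. Otherwise, values were interpolated linearly from a five-concentration, 48-hour dose response in 96-well plates. At the TGI there is no net growth.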

How the values were obtained:
Experiment in all cases: inhibition of tumour cell growth, NCI panel, 48 h
[1] = system: EKVX NSCLC
[2] = system: NCI-H460 lung
[3] = system: DU-145 prostate
[4] = system: SK-MEL-5 melanoma
[5] = system: LOX IMVI melanoma
[6] = system: NCI-H226 lung
[7] = system: KM12 colon
[8] = system: HL-60(TB) leukemia
[9] = system: SK-OV-3 ovarian
[10] = system: ACHN renal
[11] = system: IGROV1 ovarian
[12] = system: UACC-257 melanoma
[13] = system: 786-0 renal
[14] = system: HT29 colon
[15] = system: SK-MEL-28 melanoma
[16] = system: OVCAR-4 ovarian
[17] = system: NCI/ADR-RES ovarian
[18] = system: T-47D breast
[19] = system: HCT-116 colon
[20] = system: SF-539 CNS
[21] = system: K-562 leukemia
[22] = system: OVCAR-3 ovarian
[23] = system: NCI-H522 lung
[24] = system: MCF7 breast
[25] = system: MOLT-4 leukemia
[26] = system: HOP-62 NSCLC
[27] = system: HCT-15 colon
[28] = system: RXF 393 renal
[29] = system: OVCAR-8 ovarian
[30] = system: CAKI-1 renal
[31] = system: MDA-N
[32] = system: NCI-H23 lung
[33] = system: RPMI-8226 leukemia
[34] = system: SK-MEL-2 melanoma
[35] = system: U251 CNS
[36] = system: SR leukemia
[37] = system: UO-31 renal
[38] = system: PC-3 prostate
[39] = system: A498 renal
[40] = system: M14 melanoma
[41] = system: MDA-MB-435
[42] = system: MDA-MB-231 breast
[43] = system: CCRF-CEM leukemia
[44] = system: TK-10 renal
[45] = system: SF-268 CNS
[46] = system: SW-620 colon
[47] = system: OVCAR-5 ovarian
[48] = system: SF-295 CNS
[49] = system: HS 578T breast
[50] = system: MALME-3M melanoma
[51] = system: SNB-19 CNS
[52] = system: HCC-2998 colon
[53] = system: A549 NSCLC
[54] = system: HOP-92 NSCLC
[55] = system: SNB-75 CNS

For `Fc1ccc(NCn2nc(COc3ccccc3Cl)n(/N=C/c3ccc(-c4ccc(Cl)cc4Cl)o3)c2=S)cc1Cl`, the TGI [1] was over 100 µM, the TGI [2] was over 100 µM and the TGI [3] was over 100 µM. It also gave a TGI [4] of 29.9 µM, a TGI [5] of over 100 µM and a TGI [6] of over 100 µM. It also gave a TGI [7] of 99 µM, a TGI [8] of 48.9 µM and a TGI [9] of over 100 µM. It also gave a TGI [10] of over 100 µM, a TGI [11] of over 100 µM and a TGI [12] of over 100 µM. For the same compound, the TGI [13] was over 100 µM, the TGI [14] was over 100 µM and the TGI [15] was over 100 µM. For the same compound, the TGI [16] was over 100 µM, the TGI [17] was over 100 µM and the TGI [18] was over 100 µM. The TGI [19] was over 100 µM, the TGI [20] was over 100 µM and the TGI [21] was 43.6 µM. The TGI [22] was over 100 µM, the TGI [23] was over 100 µM and the TGI [24] was over 100 µM. For the same compound, the TGI [25] was 45.5 µM, the TGI [26] was over 100 µM and the TGI [27] was over 100 µM. It also gave a TGI [28] of 56.6 µM, a TGI [29] of over 100 µM and a TGI [30] of over 100 µM. It also gave a TGI [31] of over 100 µM, a TGI [32] of over 100 µM and a TGI [33] of 72 µM. It also gave a TGI [34] of 62.6 µM, a TGI [35] of 75.2 µM and a TGI [36] of 36.8 µM. The TGI [37] was over 100 µM, the TGI [38] was over 100 µM and the TGI [39] was 41.6 µM. For the same compound, the TGI [40] was over 100 µM, the TGI [41] was over 100 µM and the TGI [42] was over 100 µM. The TGI [43] was over 100 µM, the TGI [44] was over 100 µM and the TGI [45] was over 100 µM. It also gave a TGI [46] of over 100 µM, a TGI [47] of over 100 µM and a TGI [48] of over 100 µM. It also gave a TGI [49] of over 100 µM.

`O=c1oc2cccnc2n1CCN1CCN(c2ccc(Oc3ccccc3)cc2)CC1` gave a TGI [1] of over 100 µM, a TGI [2] of over 100 µM and a TGI [3] of over 100 µM. The TGI [50] was over 100 µM, the TGI [4] was over 100 µM and the TGI [51] was over 100 µM. For the same compound, the TGI [5] was over 100 µM, the TGI [8] was 86.4 µM and the TGI [9] was over 100 µM. It also gave a TGI [10] of over 100 µM, a TGI [11] of over 100 µM and a TGI [12] of over 100 µM. For the same compound, the TGI [13] was over 100 µM, the TGI [14] was over 100 µM and the TGI [15] was over 100 µM. It also gave a TGI [16] of 75.4 µM, a TGI [17] of over 100 µM and a TGI [18] of over 100 µM. It also gave a TGI [52] of over 100 µM, a TGI [19] of over 100 µM and a TGI [20] of over 100 µM. The TGI [21] was over 100 µM, the TGI [22] was over 100 µM and the TGI [23] was over 100 µM. The TGI [24] was over 100 µM, the TGI [25] was over 100 µM and the TGI [26] was over 100 µM. For the same compound, the TGI [27] was over 100 µM, the TGI [28] was over 100 µM and the TGI [29] was over 100 µM. It also gave a TGI [30] of over 100 µM, a TGI [31] of over 100 µM and a TGI [32] of over 100 µM. The TGI [33] was over 100 µM, the TGI [34] was over 100 µM and the TGI [35] was over 100 µM. For the same compound, the TGI [36] was over 100 µM, the TGI [37] was over 100 µM and the TGI [38] was over 100 µM. For the same compound, the TGI [53] was over 100 µM, the TGI [39] was over 100 µM and the TGI [40] was over 100 µM. For the same compound, the TGI [41] was over 100 µM, the TGI [42] was over 100 µM and the TGI [54] was over 100 µM. The TGI [43] was over 100 µM, the TGI [44] was over 100 µM and the TGI [45] was over 100 µM. It also gave a TGI [46] of over 100 µM, a TGI [47] of over 100 µM and a TGI [55] of over 100 µM. For the same compound, the TGI [48] was over 100 µM and the TGI [49] was over 100 µM.
